Marks after values point to notes of the source that are not given here.
Experiments:
[1] = Mechanism of photolysis (triplet state lifetime); type: physicochemical
Text: The halogenated coumarin derivatives have good dark stability, and high one-photon and two-photon uncaging efficiencies. Without being bound to any particular theory, halogenation of the coumarin may have increased the two-photon cross-sections by lowering the pKa of the chromophore below physiological pH and promoting formation of the more strongly absorbing anion. Also, the heavy atoms may promote intersystem crossing to the triplet, which is believed to be the photochemically reactive state. […] The mechanism of photolysis of compound 7 and compound 23 indicate that the solvolysis occurs via the triplet state with a lifetime of about 1 μs. […] Although compound 6 had the highest cross-section, its photolysis was complicated by multiple secondary photoproducts. The monobromo compound (compound 5) was much more tractable and easily formed caged compounds.

[2] = Electronic absorption and emission properties; type: physicochemical
Experimental: Generally, chemicals and solvents were used directly as received unless otherwise noted. Acetonitrile, chloroform and dichloromethane were dried over 4A molecular sieves. Proton magnetic resonance spectra (^1H NMR) were recorded on a Gemini 200 MHz spectrometer (Varian; Palo Alto, Calif.) and reported in ppm (δ) downfield from tetramethylsilane with residual solvent peaks as the internal standards. Ultraviolet spectra were recorded on a Cary 3E UV-Visible spectrophotometer (Varian, Palo Alto, Calif., USA). Fluorescence spectra were recorded on a Fluorolog spectrofluorometer (SPEX; Edison, N.J., USA). Mass spectra were recorded on a electrospray mass spectrometer (5989B, Hewlett-Packard; Palo Alto, Calif., USA). Thin layer chromatography (TLC) and column chromatography were performed on precoated silica gel 60F-254 plates and 230-400 mesh silica gel 60 respectively (EM Separations; Gibbstown, N.J., USA). All manipulations of compounds sensitive to near ultraviolet light were performed under an orange safety lamp.
(§1) The electronic absorption and emission properties of the compounds were measured and the stability of the compounds toward hydrolysis in the dark was tested. Stability in the dark can be used to help identify photolabile protecting groups that can be used in a variety of different conditions. Specifically, the quantum efficiencies for one-photon excitation and rates of hydrolysis in the dark were determined.

[3] = In vitro measurements of two-photon uncaging and fluorescence cross-sections; type: physicochemical; conditions: pH 7.2
Experimental: Measurements of cross-sections for two-photon uncaging were carried out in microcuvettes with cylindrical cavities having a 1 cm path length and 20 μL total volume (Type 26F, Starna). Femtosecond infrared pulses from a mode-locked titanium-sapphire laser (Spectra-Physics TSUNAMI, pumped by a Spectra-Physics MILLENNIUM) were aimed along the axis of the sample chamber and focused in its center with a 25 mm focal length lens (06LXP003/076, Melles Griot, Irvine, Calif.) optimized for infrared lasers. The pulse parameters were estimated by replacing the caged compound by a solution of fluorescein, a reference compound of known fluorescence quantum yield Qf2 (0.9) and two-photon absorbance cross-section δaF (30 and 38 GM at 740 and 800 nm respectively). The time-averaged fluorescence <F(t)>collected by the detector is given by equation (1)
<F(t)>=0.5φQf2δaFCF<I0^2(t)>∫S^2(r)dV (1)
where φ is the collection efficiency of the detector, CF is the concentration of fluorescein, <I0^2(t)> is the mean squared light intensity, S(r) is a unitless spatial distribution function, and the integral is over the volume of the microcuvette. The fluorescence emitted at right angles to the laser beam was measured through a 535 nm bandpass filter in front of a silicon photodiode radiometer (IL1700, International Light). The collection efficiency φ was estimated as Ay/(4πR^2n^2), where A is the area of the detector (0.38 cm^2), y is the fraction of the integrated emission spectrum transmitted by the interference filter (0.377), measured separately in a spectrofluorometer, R is the distance from the center of the cuvette to the detector (3.83 cm), and n is the refractive index of water (1.333). For photolysis of a caged compound or substrate, the number NP of molecules of product formed per unit time is (eq. 2):
NP=0.5Qu2δaSCS<I0^2(t)>∫S^2(r)dV (2)
where Qu2, δaS, and CS are the quantum efficiency for two-photon uncaging, absorbance cross-section, and concentration of the substrate, respectively. NP was measured by HPLC sampling of the microcuvette as for the one-photon photolysis. The uncaging action cross-section δu2 (≡Qu2δaS) can therefore be estimated by (eq. 3): [formula]
Similarly, when the substrate is also fluorescent, its two-photon fluorescence action cross-section δf2S (≡Qf2SδaS) can be estimated as (eq. 4): [formula]
Here the subscripts S and F distinguish values for the substrate and for the fluorescein reference. If one assumes that one- and two-photon quantum efficiencies are the same, then δu2/Qu1 and δf2S/Qf1S should both equal δaS. In fact, the former values are typically about twice the latter. All of them are directly proportional to the assumed value of Qf2 for fluorescein.

[4] = One-photon photolysis quantum efficiency (UV irradiation, HPLC analysis); type: physicochemical; conditions: 365 nm
Experimental: as §1
[…] The duration of each irradiation period was controlled by an electronic shutter. Between each irradiation, a small aliquot (10 μL) of the solution was removed for analysis by reversed phase HPLC with a Betabasic-18 column eluted with a isocratic mixture of 60% acetonitrile and water containing 0.1% trifluoracetic acid at a flow rate of 0.8 mL/min, using absorbance detection at 325 nm. […] […] Quantum efficiencies were calculated as (Iσt90%)^−1, where I is the irradiation intensity in einsteins (cm^−2s^−1), σ is the decadic extinction coefficient in cm^2mol^−1 (10^3 times ε, the usual extinction coefficient in M^−1cm^−1), and t90% is the irradiation time in seconds for 90% conversion to product. […] Dark hydrolysis rates were measured similarly except without illumination.

rat cortical neurons = assay: One-photon UV uncaging of caged glutamate on brain slices, neuronal responses; type: cell-based; conditions: one-photon UV uncaging at 365 nm, 10 mW, average
Experimental: The photolabile protecting groups can be uncaged by one-photon or two-photon photolysis. One-photon ultraviolet uncaging experiments were carried out on brain slices. In particular, compound 7 was used to deliver glutamate to rat cortical neurons. One-photon UV uncaging of caged glutamate compound at 365 nm released the glutamate. Neuronal responses were measured after directly stimulating cells as described in Sawatari and Callaway, Nature 380:442-446 (1996). The cells were exposed to compound 7 (Bhc-Glu) or γ-(α-carboxy-2-nitrobenzyl)glutamate, trifluoroacetate salt (compound 1, CNB-glutamate). The one-photon uncaging was carried out as described in FIG. 1 depicts the lower power needed to uncage compound 7 (Bhc-Glu) in the neuron sample in comparison to compound 1 (alpha-carboxy nitrobenzyl-caged glutamate, CNB-Glu). At 10 mW the compound 7-stimulated neurons respond, on average, at amplitudes 80% of their maximum, while compound 1-stimulated neurons are responding at less than 20% of their maximum amplitudes.

[5] = In vitro measurements of two-photon uncaging and fluorescence cross-sections; type: physicochemical; conditions: measured at 780 nm on an independent apparatus
brain slices = assay: Two-photon infrared uncaging on brain slices, whole-cell recordings
Experimental: A map was created where the brightness at each picture element was proportional to the maximum current recorded with the laser focused at that position.
Two-photon infrared uncaging on brain slices was also carried out. […] The stream of pulses from the Ti:sapphire laser was raster-scanned across cell bodies and dendrites.

O=C(O)CC[C@H](NC(=O)OCc1cc(=O)oc2cc(O)c(Br)cc12)C(=O)O [Compound 7, N-(6-Bromo-7-hydroxycoumarin-4-yl)methoxycarbonyl glutamate]
Lifetime of triplet state through which solvolysis occurs [1]: about 1 μs | Qf1 Quantum efficiency for fluorescence with one-photon excitation [2]: 0.38 | λem [2]: 474 nm | ε Molar Absorptivity at 365 nm ([2]; 365 nm): 17,300 M^−1cm^−1 | ε Molar Absorptivity at 400 nm ([2]; 400 nm): 5,400 M^−1cm^−1 | λmax Wavelength of peak absorbance ([2]; pH 7.2): 368 nm | ε Molar absorptivity at absorbance peak ([2]; pH 7.2, at absorbance peak): 17,470 M^−1cm^−1 | δu (740 nm) uncaging action cross-section for two-photon excitation ([3]; 740 nm): 0.98 ± 10^−50 cm^4s/photon | δu (800 nm) uncaging action cross-section for two-photon excitation ([3]; 800 nm): 0.37 ± 10^−50 cm^4s/photon | Qu1 Quantum efficiency for uncaging with one-photon excitation at 365 nm [4]: 0.019 | εQu1 One-photon action cross section (product of molar absorptivity and photolysis quantum yield) at 365 nm [4]: 329 M⁻¹ cm⁻¹ | Neuron response amplitude, percent of maximum amplitude (rat cortical neurons): 80% | δf fluorescence action cross-section for two-photon excitation [5]: 2.2* 10^−50 cm^4s/photon | Response to laser scans after application of caged compound (brain slices; Ti:sapphire laser raster-scanned across cell bodies and dendrites): scans evoked inward currents | Entry into the cell (brain slices; photolysis map of neuron): did not enter the cell | Change in holding current on application of caged compound (intrinsic agonist activity) (brain slices; whole-cell recordings, 15 cells, before photolysis): did not cause detectable changes in holding current

— patent US6472541B2, “Protecting groups with increased photosensitivities” (The Regents of the University of California, priority 1998, dated 2002)
